Source: PubChem BioAssay (NCI)
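Following 48 hours of exposure in 96-well plates, responses at five concentrations were used to interpolate endpoints linearly. TGI: total growth inhibition.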

Assays:
Test in all cases: NCI-60 cell line screen, 48 h
[1] = test system: SK-MEL-28 melanoma
[2] = test system: COLO 205 colon
[3] = test system: MOLT-4 leukemia
[4] = test system: EKVX NSCLC
[5] = test system: SK-MEL-2 melanoma
[6] = test system: MDA-MB-231 breast
[7] = test system: T-47D breast
[8] = test system: SN12C renal
[9] = test system: TK-10 renal
[10] = test system: HL-60(TB) leukemia
[11] = test system: UACC-62 melanoma
[12] = test system: MDA-N
[13] = test system: BT-549 breast
[14] = test system: A549 NSCLC
[15] = test system: RXF 393 renal
[16] = test system: SF-268 CNS
[17] = test system: OVCAR-3 ovarian
[18] = test system: CCRF-CEM leukemia
[19] = test system: SNB-19 CNS
[20] = test system: SK-MEL-5 melanoma
[21] = test system: MDA-MB-435
[22] = test system: SR leukemia
[23] = test system: MCF7 breast
[24] = test system: DU-145 prostate
[25] = test system: U251 CNS
[26] = test system: HCT-15 colon
[27] = test system: HCT-116 colon
[28] = test system: NCI-H23 lung
[29] = test system: SF-539 CNS
[30] = test system: CAKI-1 renal
[31] = test system: HS 578T breast
[32] = test system: OVCAR-5 ovarian
[33] = test system: 786-0 renal
[34] = test system: UACC-257 melanoma
[35] = test system: SW-620 colon
[36] = test system: UO-31 renal
[37] = test system: LOX IMVI melanoma
[38] = test system: SF-295 CNS
[39] = test system: HCC-2998 colon
[40] = test system: K-562 leukemia
[41] = test system: A498 renal
[42] = test system: HT29 colon
[43] = test system: SK-OV-3 ovarian
[44] = test system: SNB-75 CNS
[45] = test system: NCI/ADR-RES ovarian
[46] = test system: M14 melanoma
[47] = test system: MALME-3M melanoma
[48] = test system: NCI-H460 lung
[49] = test system: NCI-H226 lung
[50] = test system: HOP-92 NSCLC
[51] = test system: HOP-62 NSCLC
[52] = test system: NCI-H522 lung
[53] = test system: PC-3 prostate
[54] = test system: ACHN renal
[55] = test system: OVCAR-4 ovarian
[56] = test system: OVCAR-8 ovarian
[57] = test system: KM12 colon
[58] = test system: IGROV1 ovarian

Question: For O=C1CS(=O)(=O)C(c2cccc(Oc3ccccc3)c2)N1c1ccccc1 (stereo not given), which TGI [1] is on record?
Answer: 85.4 µM

Question: And the TGI [2]?
Answer: 37.2 µM

Question: What about the TGI [3] of the same compound?
Answer: 65.7 µM

Question: And the TGI [4]?
Answer: 54.2 µM

Question: What about the TGI [5] of the same compound?
Answer: 31.5 µM

Question: And the TGI [6]?
Answer: 62.6 µM

Question: And the TGI [7]?
Answer: > 100 µM

Question: What about the TGI [8] of the same compound?
Answer: 39.7 µM

Question: And the TGI [9]?
Answer: 60 µM

Question: And the TGI [10]?
Answer: > 100 µM

Question: What about the TGI [11] of the same compound?
Answer: 27 µM

Question: And the TGI [12]?
Answer: 44.2 µM

Question: What about the TGI [13] of the same compound?
Answer: 49.1 µM

Question: What about the TGI [14] of the same compound?
Answer: > 100 µM

Question: What about the TGI [15] of the same compound?
Answer: 38.7 µM

Question: What about the TGI [16] of the same compound?
Answer: 75.8 µM

Question: And the TGI [17]?
Answer: 55.1 µM

Question: And the TGI [18]?
Answer: > 100 µM

Question: What about the TGI [19] of the same compound?
Answer: > 100 µM

Question: What about the TGI [20] of the same compound?
Answer: 29.3 µM

Question: What about the TGI [21] of the same compound?
Answer: 68.2 µM

Question: And the TGI [22]?
Answer: 57 µM

Question: And the TGI [23]?
Answer: 33.3 µM

Question: What about the TGI [24] of the same compound?
Answer: > 100 µM

Question: What about the TGI [25] of the same compound?
Answer: 33.3 µM

Question: And the TGI [26]?
Answer: 66 µM

Question: And the TGI [27]?
Answer: 30.8 µM

Question: What about the TGI [28] of the same compound?
Answer: 94.6 µM

Question: What about the TGI [29] of the same compound?
Answer: 39.6 µM

Question: What about the TGI [30] of the same compound?
Answer: 58.3 µM

Question: What about the TGI [31] of the same compound?
Answer: 69.9 µM

Question: What about the TGI [32] of the same compound?
Answer: > 100 µM

Question: And the TGI [33]?
Answer: 37.8 µM

Question: And the TGI [34]?
Answer: 46 µM

Question: What about the TGI [35] of the same compound?
Answer: > 100 µM

Question: And the TGI [36]?
Answer: 80.4 µM

Question: And the TGI [37]?
Answer: 32.7 µM

Question: What about the TGI [38] of the same compound?
Answer: > 100 µM

Question: What about the TGI [39] of the same compound?
Answer: 35 µM

Question: What about the TGI [40] of the same compound?
Answer: 60.1 µM

Question: What about the TGI [41] of the same compound?
Answer: 41.8 µM

Question: And the TGI [42]?
Answer: > 100 µM

Question: What about the TGI [43] of the same compound?
Answer: > 100 µM

Question: What about the TGI [44] of the same compound?
Answer: > 100 µM

Question: And the TGI [45]?
Answer: 83 µM

Question: And the TGI [46]?
Answer: 38.7 µM

Question: And the TGI [47]?
Answer: 42.6 µM

Question: And the TGI [48]?
Answer: 38.4 µM

Question: And the TGI [49]?
Answer: 45.6 µM

Question: What about the TGI [50] of the same compound?
Answer: 32.8 µM

Question: And the TGI [51]?
Answer: > 100 µM

Question: And the TGI [52]?
Answer: 47.9 µM

Question: What about the TGI [53] of the same compound?
Answer: 66.8 µM

Question: And the TGI [54]?
Answer: 64.8 µM

Question: What about the TGI [55] of the same compound?
Answer: > 100 µM

Question: What about the TGI [56] of the same compound?
Answer: > 100 µM

Question: What about the TGI [57] of the same compound?
Answer: > 100 µM

Question: COc1c2ccsc2c(OC)c2ccsc12 was tested. Which TGI [1] did it give?
Answer: > 100 µM

Question: And the TGI [58]?
Answer: > 100 µM

Question: What about the TGI [2] of the same compound?
Answer: > 100 µM

Question: What about the TGI [3] of the same compound?
Answer: > 100 µM

Question: And the TGI [4]?
Answer: > 100 µM

Question: What about the TGI [5] of the same compound?
Answer: > 100 µM

Question: What about the TGI [6] of the same compound?
Answer: > 100 µM

Question: And the TGI [7]?
Answer: > 100 µM

Question: And the TGI [8]?
Answer: > 100 µM

Question: What about the TGI [9] of the same compound?
Answer: > 100 µM

Question: And the TGI [10]?
Answer: > 100 µM

Question: And the TGI [11]?
Answer: > 100 µM

Question: What about the TGI [12] of the same compound?
Answer: > 100 µM

Question: What about the TGI [13] of the same compound?
Answer: > 100 µM

Question: What about the TGI [14] of the same compound?
Answer: > 100 µM

Question: What about the TGI [15] of the same compound?
Answer: > 100 µM

Question: And the TGI [16]?
Answer: > 100 µM

Question: What about the TGI [17] of the same compound?
Answer: > 100 µM

Question: What about the TGI [18] of the same compound?
Answer: > 100 µM

Question: And the TGI [19]?
Answer: > 100 µM

Question: And the TGI [20]?
Answer: > 100 µM

Question: What about the TGI [21] of the same compound?
Answer: > 100 µM

Question: And the TGI [22]?
Answer: > 100 µM

Question: And the TGI [23]?
Answer: > 100 µM

Question: And the TGI [24]?
Answer: > 100 µM

Question: What about the TGI [25] of the same compound?
Answer: > 100 µM

Question: And the TGI [26]?
Answer: > 100 µM

Question: And the TGI [27]?
Answer: > 100 µM

Question: And the TGI [28]?
Answer: > 100 µM

Question: And the TGI [29]?
Answer: > 100 µM

Question: What about the TGI [30] of the same compound?
Answer: 40 µM

Question: What about the TGI [31] of the same compound?
Answer: > 100 µM

Question: What about the TGI [32] of the same compound?
Answer: > 100 µM

Question: What about the TGI [33] of the same compound?
Answer: > 100 µM

Question: And the TGI [34]?
Answer: > 100 µM

Question: And the TGI [35]?
Answer: > 100 µM

Question: What about the TGI [36] of the same compound?
Answer: > 100 µM

Question: And the TGI [37]?
Answer: > 100 µM

Question: What about the TGI [38] of the same compound?
Answer: > 100 µM

Question: And the TGI [39]?
Answer: > 100 µM

Question: What about the TGI [40] of the same compound?
Answer: > 100 µM

Question: And the TGI [41]?
Answer: > 100 µM

Question: What about the TGI [42] of the same compound?
Answer: > 100 µM

Question: What about the TGI [43] of the same compound?
Answer: > 100 µM

Question: What about the TGI [44] of the same compound?
Answer: > 100 µM

Question: And the TGI [45]?
Answer: > 100 µM

Question: What about the TGI [46] of the same compound?
Answer: > 100 µM

Question: What about the TGI [47] of the same compound?
Answer: > 100 µM

Question: And the TGI [48]?
Answer: > 100 µM

Question: And the TGI [49]?
Answer: > 100 µM

Question: And the TGI [50]?
Answer: > 100 µM

Question: What about the TGI [51] of the same compound?
Answer: > 100 µM

Question: And the TGI [52]?
Answer: > 100 µM

Question: And the TGI [53]?
Answer: > 100 µM

Question: And the TGI [54]?
Answer: > 100 µM

Question: And the TGI [55]?
Answer: > 100 µM

Question: What about the TGI [56] of the same compound?
Answer: > 100 µM

Question: What about the TGI [57] of the same compound?
Answer: > 100 µM
